Measured values reported in paper PMC11003481, “Synthesis, biological evaluation, and computational studies of N-benzyl pyridinium–curcumin derivatives as potent AChE inhibitors with antioxidant activity” (Journal of Enzyme Inhibition and Medicinal Chemistry, 2023).

Key:
[1] = target: T1, butyrylcholinesterase (eqBChE, from equine serum) (Equus caballus, UniProt P81908); experiment: biochemical; settings: mean ± SEM of three independent experiments, duplicate samples, read-out: IC50 ± SEM BChE
T1 construct: butyrylcholinesterase (eqBChE, from equine serum); from tissue; host or cells: equine serum
Method: (§1) The AChE and BChE inhibitory activity assays were performed using a BioTek Epoch 2 microplate spectrophotometer in clear, flat-bottom 96-well plates. […] To each well, 295 µL phosphate buffer pH 8.0, 10 µL enzyme solution (AChE/BChE), and 10 µL target compound solutions were added together and allowed to stand for 4 min at room temperature. Then, 10 µL of 0.01 M solution freshly prepared Ellman’s reagent 5,5′-dithiobis(2-nitrobenzoic acid) (DTNB) was added to each well. The reaction in the wells was started by the addition of 2 µL of 0.075 M solution freshly prepared substrate (ATCh (acetylthiocholine iodide)/BTCh (S-butyrylthiocholine iodide)) solution. The solution was mixed immediately and incubated for 2:30 min for AChE or for 5 min for BChE inside the microplate reader at 26 °C. […] The IC50 values were calculated graphically by nonlinear regression analysis of inhibition curves that were obtained by plotting the logarithm of the inhibitor concentrations versus the percentage of inhibition (log(inhibitor) vs. normalised response) using GraphPad Prism 8 software (See Supplementary Information for details).

[2] = target: acetylcholinesterase (eeAChE, from Electrophorus electricus) (Electrophorus electricus, UniProt O42275); experiment: biochemical; settings: for Selectivity Index (SI) (AChE): Selectivity ratio [IC50(BChE)/IC50(AChE)]; for IC50: eeAChE, mean ± SEM of three independent experiments, duplicate samples, read-out: IC50 ± SEM AChE
Method: as §1

[3] = target: eeAChE (Electrophorus electricus, UniProt O42275); experiment: biochemical; assay type: biochemical; settings: from slopes of Lineweaver-Burk plots versus inhibitor concentration; substrate ATCh; read-out: Ki ± SEM eeAChE
Method: The slopes of the Lineweaver-Burk reciprocal plots against the concentrations of the compound (inhibitor) were plotted to obtain the Ki values for the prepared compounds (Table 1). The value at which the line intersects the x-axis is -Ki.
The assay was performed in triplicate using different inhibitor concentrations. […] The assay was carried out in clear, flat-bottom 96-well plates, to which 5 µL distilled water was added to all wells of columns 2–3, rows B-F. Then, 5 µL of the lowest concentration of inhibitor solution was added to the wells of columns 4–5, 5 µL of the median concentration of inhibitor solution was added to the wells of columns 6–7, and 5 µL of the highest concentration of inhibitor solution was added to the wells of columns 8–9. Next, 275 μL enzyme solution was added to the wells, and the plates were incubated for 4 min. Then, 10 μL 2.5 mM DTNB was added to the wells, followed by 10 μL of 32, 16, 8, 4, or 2 mM ATCh solutions to initiate the reactions. The plates were placed in a microplate reader for direct kinetic measurements.
The inhibition constant (Ki) for each inhibitor was calculated by averaging the ATCh hydrolysis rates from three independent experiments. Using GraphPad Prism 8 software, nonlinear regression was used to calculate the Km and Vmax values of the Michaelis-Menten kinetics by plotting [substrate] versus velocity. For the Lineweaver-Burk plots, linear regression was used to plot [1/ATCh] versus […]. Finally, the Ki values were obtained by plotting the slopes against [inhibitor] [20].

[4] = ABTS radical cation decolorisation antioxidant assay
Method: The antioxidant activity was determined using a radical cation (ABTS^.+) decolorisation assay, as described by Xiao et al.[21] with a few modifications. The assay used a BioTek Epoch 2 microplate spectrophotometer (Agilent, USA) with clear, flat-bottom 96-well plates. The 7 mmol/L ABTS^.+ stock solution was prepared by dissolving 96.02 mg ABTS in acetic acid buffer (pH 4.5) and to a final volume of 25 ml, which was kept in the dark at 0–4 °C. A 2.45 mmol/L potassium persulfate (K2S2O8) stock solution was prepared by dissolving 66.24 mg K2S2O8 in acetic acid buffer solution with pH 4.5, and then diluted to 100 ml and kept in the dark at 0–4 °C. The ABTS working solution was prepared by mixing similar quantities of 7 mmol/L ABTS and 2.45 mmol/L K2S2O8. This solution was stored in a dark cabinet for 16 h before use, when it was diluted with distilled water to obtain an absorbance of 0.70 at 734 nm. In a clear, flat-bottom 96-well plate, 200 μL of ABTS working solution and 10.0 μL sample solution at different concentrations (0.0312–0.5 mg/mL) were mixed well and incubated in the dark for 7 min before the absorbance was measured at 734 nm using a microplate reader. A blank was run for each assay, and all measurements were performed after 7 min. The ABTS scavenging capacity of inhibitors was compared with that of trolox and α-tocopherol. […]

Chain of acetylcholinesterase (eeAChE, from Electrophorus electricus) (O42275 24-633): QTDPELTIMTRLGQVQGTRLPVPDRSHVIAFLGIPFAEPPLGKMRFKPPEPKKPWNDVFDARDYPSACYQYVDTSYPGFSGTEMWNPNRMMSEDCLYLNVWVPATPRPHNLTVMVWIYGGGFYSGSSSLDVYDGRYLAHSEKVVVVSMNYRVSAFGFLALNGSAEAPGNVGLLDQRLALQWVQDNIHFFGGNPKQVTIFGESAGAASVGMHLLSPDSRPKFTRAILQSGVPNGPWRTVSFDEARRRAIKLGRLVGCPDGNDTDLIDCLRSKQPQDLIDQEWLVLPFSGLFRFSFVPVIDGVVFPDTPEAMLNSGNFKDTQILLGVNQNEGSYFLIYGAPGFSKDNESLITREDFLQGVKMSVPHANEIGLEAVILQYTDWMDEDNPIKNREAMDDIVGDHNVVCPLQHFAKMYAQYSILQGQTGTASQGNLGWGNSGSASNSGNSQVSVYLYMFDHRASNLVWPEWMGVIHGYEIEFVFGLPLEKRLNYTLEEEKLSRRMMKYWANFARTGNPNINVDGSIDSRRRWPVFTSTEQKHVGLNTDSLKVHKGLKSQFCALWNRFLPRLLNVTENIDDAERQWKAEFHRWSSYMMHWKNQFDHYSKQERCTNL
Chain of eeAChE (O42275 24-633): as above
T1 sequence (P81908 whole entry): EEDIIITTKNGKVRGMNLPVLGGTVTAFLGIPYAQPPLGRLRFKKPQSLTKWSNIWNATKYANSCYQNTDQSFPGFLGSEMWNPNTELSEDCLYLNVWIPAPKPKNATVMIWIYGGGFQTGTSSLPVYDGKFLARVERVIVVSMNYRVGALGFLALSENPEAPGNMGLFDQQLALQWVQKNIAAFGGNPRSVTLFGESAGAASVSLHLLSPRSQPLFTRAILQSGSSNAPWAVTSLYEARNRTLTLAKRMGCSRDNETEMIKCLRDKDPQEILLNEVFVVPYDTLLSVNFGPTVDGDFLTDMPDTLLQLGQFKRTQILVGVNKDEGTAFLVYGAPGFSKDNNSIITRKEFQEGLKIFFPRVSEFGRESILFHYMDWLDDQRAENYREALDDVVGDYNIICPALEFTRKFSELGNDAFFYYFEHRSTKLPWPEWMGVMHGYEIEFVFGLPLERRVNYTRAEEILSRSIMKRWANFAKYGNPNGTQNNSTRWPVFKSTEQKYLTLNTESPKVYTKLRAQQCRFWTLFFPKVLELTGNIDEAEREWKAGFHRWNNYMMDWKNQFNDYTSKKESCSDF

| Structure (SMILES) | IC50 [1] [nM] | Selectivity Index (SI) (AChE) [2] | IC50 [2] [nM] | Ki [3] [nM] | ABTS Inhibition % ([4]; 0.0312 mg/mL) [%] | ABTS Inhibition % ([4]; 0.0625 mg/mL) [%] | ABTS Inhibition % ([4]; 0.125 mg/mL) [%] | ABTS Inhibition % ([4]; 0.25 mg/mL) [%] | ABTS Inhibition % ([4]; 0.5 mg/mL) [%] |
| --- | --- | --- | --- | --- | --- | --- | --- | --- | --- |
| COc1cc(/C=C/C(=O)/C=C/c2ccc[n+](Cc3ccc(F)cc3)c2)ccc1O [8 g, 1–(4-Fluorobenzyl)-3-(1E,4E)-5–(4-hydroxy-3-methoxyphenyl)-3-oxopenta-1,4-dien-1-yl)pyridin-1-ium bromide] | 1200 ± 97 | 79 | 16 ± 0.24 | 10 ± 0.025 | 6.1 ± 0.71 | 13.7 ± 0.52 | 24.7 ± 0.51 | 39.5 ± 0.38 |  |
| COc1cc(/C=C/C(=O)/C=C/c2cc[n+](Cc3ccc(F)cc3)cc2)ccc1O [7 g, 1–(4-Fluorobenzyl)-4-(1E,4E)-5–(4-hydroxy-3-methoxyphenyl)-3-oxopenta-1,4-dien-1-yl)pyridin-1-ium bromide] | 1040 ± 81 | 65 | 16 ± 0.18 | 6 ± 0.031 | 6.1 ± 0.82 | 13.9 ± 0.68 | 22.5 ± 0.77 | 30.2 ± 1.86 | 52.1 ± 1.58 |
| O=C(/C=C/c1ccccc1)/C=C/c1cc[n+](Cc2ccc(F)cc2)cc1 [Compound 7b] | 1070 ± 80 | 21 | 52 ± 0.18 | 56 ± 0.016 | 0.5 ± 0.47 | 1.4 ± 0.07 | 3.3 ± 0.10 | 6.2 ± 0.50 | 7.1 ± 0.59 |
| COc1cc(/C=C/C(=O)/C=C/c2ccc[n+](Cc3ccccc3)c2)ccc1O [Compound 8f, 1-Benzyl-3-(1E,4E)-5–(4-hydroxy-3-methoxyphenyl)-3-oxopenta-1,4-dien-1-yl)pyridin-1-ium bromide] | 3500 ± 95 |  | 17 ± 0.17 | 16 ± 0.022 | 7.7 ± 0.97 | 15.8 ± 0.18 | 25.4 ± 0.57 | 39.3 ± 0.23 |  |
